Values joined by “and” are separate entries in the source; they are usually repeats but may differ in a detail not shown here. Equal entries are not always repeated. Where two headings read alike, the source gives them in different places.
Tests used:
[1] = system: human G-CSF (G21) promoter; assay: High-throughput luciferase reporter assay, G-CSF promoter (Screen III); details: for scored as positive in repeat assays, G-CSF: 48 independent luciferase assays performed on the same day; for FOLD INDUCTION RELATIVE TO SOLVENT CONTROL, GCSF: Screen III activators; for FOLD INDUCTION RELATIVE TO SOLVENT CONTROL, GCSF / FOLD INHIBITION RELATIVE TO SOLVENT CONTROL, GCSF: G21 cells, 6 hours; for FOLD INHIBITION RELATIVE TO SOLVENT CONTROL, GCSF: Screen III inhibitors
[2] = system: human growth hormone (532) promoter; assay: High-throughput luciferase reporter assay, human Growth Hormone promoter (Screen III); type: cell-based; details: for FOLD INDUCTION RELATIVE TO SOLVENT CONTROL, hGH: Screen III activators
[3] = system: MMTV (M10) promoter; assay: High-throughput luciferase reporter assay, MMTV promoter (Screen III); type: cell-based, mouse; details: for FOLD INDUCTION RELATIVE TO SOLVENT CONTROL, MMTV: Screen III activators
Protocol: pMluci and pSV2Neo, an antibiotic resistance plasmid (112), were co-transfected into NIH/3T3 mouse fibroblast cells using the calcium phosphate precipitation method (103) with a commercially available kit (Pharmacia, Piscataway N.J.). Two days later, cells were transferred to media containing 0.4 mg/ml G418 and were grown for an additional 10-14 days. G418-resistant clones were isolated by standard methods. Once sufficient cell numbers were obtained, clones were analyzed based on several criteria: constitutive luciferase production, induction of luciferase expression by dexamethasone (1 μm, Sigma, St. Louis, Mo.), satisfactory attachment to microtiter plates used in the high-throughput screen and acceptable standard deviation in multiple luciferase expression assays (see below for assay protocol). This analysis was carried out using the luciferase assay conditions described above. Of the clones which satisfied the above criteria for the high throuphput screen, one clone, M10, was selected for use.

[4] = Screen III inhibitors, 532 cells, 6 hours
[5] = Screen III inhibitors, M10 cells, 6 hours

Structure (SMILES)	FOLD INDUCTION RELATIVE TO SOLVENT CONTROL, GCSF [1] [fold]	FOLD INDUCTION RELATIVE TO SOLVENT CONTROL, hGH ([2]; 532 cells, 6 hours) [fold]	FOLD INDUCTION RELATIVE TO SOLVENT CONTROL, MMTV ([3]; M10 cells, 6 hours) [fold]	FOLD INHIBITION RELATIVE TO SOLVENT CONTROL, hGH [2, 4] [fold]	FOLD INHIBITION RELATIVE TO SOLVENT CONTROL, MMTV [3, 5] [fold]	further results
CC(=O)n1ccnc1 [Chemical #58, 1-Acetylimidazole]	6.03	0.17	0.42	–	–	scored as positive in repeat assays, G-CSF [1]: scored as positives in every single one of these assays
CC(=O)N(C)c1ccc(N)cc1 [Chemical #1374, 4'-Amino-N-methylacetanilide]	11.03	0.05	1.05	–	–	scored as positive in repeat assays, G-CSF [1]: scored as positives in every single one of these assays
CN(C)c1ccc(C(=C2C=CC(=[N+](C)C)C=C2)c2ccc(N(C)C)cc2)cc1 [Chemical #1780, Crystal Violet]	20.39	0.38	1.15	–	–	scored as positive in repeat assays, G-CSF [1]: scored as positives in every single one of these assays
O=NN(O)c1ccccc1 [Chemical #1783, Cupferron]	6.55	0.32	0.89	–	–	scored as positive in repeat assays, G-CSF [1]: scored as positive only in half of the 48 repeat assays
CC(=O)c1c(C)cc(NC(C)(C)C)nc1NC(C)(C)C [compound 40]	5.62	0.62	0.27	–	–	–
CC(=O)c1ccc[nH]1 [compound 70]	0.43	9.26	0.85	–	–	–
CN(C)c1ccc2cc3ccc(N(C)C)cc3nc2c1 [compound 80]	5.87	0.66	0.83	–	–	–
CN(C)c1ccc(C(=N)c2ccc(N(C)C)cc2)cc1 [compound 183]	–	–	–	4.00	0.70	FOLD INHIBITION RELATIVE TO SOLVENT CONTROL, GCSF [1]: 0.72 fold
O=C(c1ccccc1)c1ccncc1 [compound 209]	–	–	–	1.08	0.81	–
CCOC(=O)N1C(=O)c2ccccc2C1=O [compound 237]	4.77	0.06	0.62	–	–	–
Cc1c(C(=O)O)c(O)cc2c1C(=O)c1c(O)c([C@@H]3O[C@H](CO)[C@@H](O)[C@H](O)[C@H]3O)c(O)c(O)c1C2=O [compound 240]	–	–	–	5.26	0.80	FOLD INHIBITION RELATIVE TO SOLVENT CONTROL, GCSF [1]: 0.63 fold
ClCCN1CCCCC1 [compound 254]	4.09	0.90	0.98	–	–	–
NC(=O)N1c2ccccc2CCc2ccccc21 [compound 299]	0.53	5.46	0.47	–	–	–
CCn1c(=O)[nH]c2ccccc21 [compound 322]	0.60	11.18	1.12	–	–	–
O=c1c(O)c(-c2ccc(O)c(O)c2)oc2cc(O)ccc12 [compound 325]	0.14	5.42	1.0	–	–	–
Nc1nc(N)nc(N)n1 [compound 364]	3.67	1.18	1.07	–	–	–
O=c1c(O)c(-c2ccc(O)cc2O)oc2cc(O)cc(O)c12 [compound 371]	–	–	–	0.41	0.89	–
O=C(O)c1ccc2c3c(ncnc13)-c1ccccc1C2=O [compound 378]	4.12	0.26	0.59	–	–	–
CCN(CC)CCCC(C)Nc1c2ccc(Cl)cc2nc2ccc(OC)cc12 (stereo not shown) [compound 423]	2.39	0.56	0.64	–	–	–
O=c1ccc2[n+]([O-])c3ccc(O)cc3oc-2c1 [compound 427]	3.14	0.43	0.71	–	–	–

Structure (SMILES)	FOLD INDUCTION RELATIVE TO SOLVENT CONTROL, GCSF [1] [fold]	FOLD INDUCTION RELATIVE TO SOLVENT CONTROL, hGH ([2]; 532 cells, 6 hours) [fold]	FOLD INDUCTION RELATIVE TO SOLVENT CONTROL, MMTV ([3]; M10 cells, 6 hours) [fold]	FOLD INHIBITION RELATIVE TO SOLVENT CONTROL, hGH [2, 4] [fold]	FOLD INHIBITION RELATIVE TO SOLVENT CONTROL, MMTV [3, 5] [fold]	further results
Cc1cc(C)nc(NS(=O)(=O)c2ccc(N)cc2)n1 [compound 443]	–	–	–	4.76	0.79	FOLD INHIBITION RELATIVE TO SOLVENT CONTROL, GCSF [1]: 0.60 fold
c1ccc(-c2cccc(-c3ccccn3)n2)nc1 [compound 453]	0.79	0.58	–	–	–	FOLD INDUCTION RELATIVE TO SOLVENT CONTROL, MMTV ([3]; M10 cells, 6 hours, 360 min): 13.3 fold and 13.30 fold; ability to activate the MMTV promoter with methanol replacing DMSO ([3]; chemical dissolved in methanol instead of DMSO): did not affect its ability to activate the MMTV promoter
c1ncncn1 [compound 473]	> 3	0.50	0.87	–	–	–
CC(C=O)=CC=CC(C)=CC=CC=C(C)C=CC=C(C)C=CC1=C(C)CCCC1(C)C [compound 519]	1.15	0.68	2.76	–	–	–
O=P(O)(O)Oc1c[nH]c2ccc(Br)c(Cl)c12 [compound 541]	–	–	–	6.25	0.86	FOLD INHIBITION RELATIVE TO SOLVENT CONTROL, GCSF [1]: 0.90 fold
Nc1nc(=O)n([C@H]2C[C@H](O)[C@@H](CO)O2)cc1Br [compound 542]	6.28	1.08	1.26	–	–	–
O=c1[nH]c(=O)n([C@H]2C[C@H](O)[C@@H](CO)O2)cc1Br [compound 543]	7.17	0.72	0.98	–	–	–
CON(C)C(=O)Nc1ccc(Cl)cc1 [compound 552]	0.81	5.31	0.86	–	–	–
CC1=CC(=C(c2cc(C)c(O)c(C(=O)O)c2)c2c(Cl)ccc(S(=O)(=O)O)c2Cl)C=C(C(=O)O)C1=O [compound 556]	–	–	–	33.33	0.87	FOLD INHIBITION RELATIVE TO SOLVENT CONTROL, GCSF [1]: 0.73 fold
CC(=O)NCCCC[C@H](NC(C)=O)C(=O)O [compound 577]	–	–	–	4.00	0.68	FOLD INHIBITION RELATIVE TO SOLVENT CONTROL, GCSF [1]: 0.64 fold
O=C(O[C@H](C(=O)O)[C@H](OC(=O)c1ccccc1)C(=O)O)c1ccccc1 [compound 578]	–	–	–	4.00	0.91	FOLD INHIBITION RELATIVE TO SOLVENT CONTROL, GCSF [1]: 0.65 fold
COc1ccc(CC(=O)O)cc1OC [compound 629]	0.85	1.05	2.48	–	–	–
O=C(O)CC1NC(=O)NC1=O (stereo not shown) [compound 630]	–	–	–	3.57	0.74	FOLD INHIBITION RELATIVE TO SOLVENT CONTROL, GCSF [1]: 0.70 fold
O=C(O)c1[nH]c(=O)[nH]c(=O)c1I [compound 633]	1.02	0.86	2.46	–	–	–
Nc1c(O)c(S(=O)(=O)O)c(O)c2c1C(=O)c1ccccc1C2=O [compound 640]	–	–	–	5.00	0.59	FOLD INHIBITION RELATIVE TO SOLVENT CONTROL, GCSF [1]: 0.64 fold
C[C@]12C=CC(=O)C=C1CC[C@@H]1[C@@H]2[C@@H](O)C[C@@]2(C)[C@H]1CC[C@]2(O)C(=O)CO [compound 764]	–	–	–	–	–	FOLD INHIBITION RELATIVE TO SOLVENT CONTROL, hGH [2]: 4.54; FOLD INHIBITION RELATIVE TO SOLVENT CONTROL, MMTV [3]: 0.59
NC(=O)c1ccccc1O [compound 798]	–	–	–	0.90	0.68	–
Cc1n[nH]cc1Br [compound 2082]	–	–	–	0.65	1.23	–
ClCCCCCBr [compound 2097]	–	0.88	1.22	–	–	–
OCc1cccc(Cl)c1 [compound 2121]	–	–	–	0.40	1.14	–

— patent US6203976A, “Methods of preparing compositions comprising chemicals capable of transcriptional modulation” (OSI Pharmaceuticals, Inc., priority 1994, dated 2001)
